Measurements published in ChEMBL document CHEMBL4376815, “The Development Process for Discovery and Clinical Advancement of Modern Antimalarials” (J Med Chem, 2019).
Values after ≈ are worked out from the molar mass of the structure shown. Blank lines part the entries; values can stand above or below the compound they belong to.

Assays:
[1] = Inhibition of Plasmodium falciparum PI4K by pull down assay; set-up: species or system Plasmodium vivax
[2] = Drug level in human Plasma treated with [14C]-KAE609 assessed metabolite formation; type: ADME, cell-free
[3] = Half life in human; type: ADME
[4] = Drug recovery in feces of po dosed human by LC-MS/MS analysis; type: ADME, organism-based; settings: faeces, read-out: Drug recovery
Plasmodium falciparum [5] = test: Antimalarial activity against Plasmodium falciparum asexual blood stage form infected in human assessed as parasite clearance half-life at 10 mg, po after 8 days; type: functional, organism-based
[6] = target: Voltage-gated inwardly rectifying potassium channel KCNH2 (Homo sapiens, UniProt Q12809); test: Inhibition of human ERG by patch clamp method
Sequence of Voltage-gated inwardly rectifying potassium channel KCNH2 (Q12809 whole entry): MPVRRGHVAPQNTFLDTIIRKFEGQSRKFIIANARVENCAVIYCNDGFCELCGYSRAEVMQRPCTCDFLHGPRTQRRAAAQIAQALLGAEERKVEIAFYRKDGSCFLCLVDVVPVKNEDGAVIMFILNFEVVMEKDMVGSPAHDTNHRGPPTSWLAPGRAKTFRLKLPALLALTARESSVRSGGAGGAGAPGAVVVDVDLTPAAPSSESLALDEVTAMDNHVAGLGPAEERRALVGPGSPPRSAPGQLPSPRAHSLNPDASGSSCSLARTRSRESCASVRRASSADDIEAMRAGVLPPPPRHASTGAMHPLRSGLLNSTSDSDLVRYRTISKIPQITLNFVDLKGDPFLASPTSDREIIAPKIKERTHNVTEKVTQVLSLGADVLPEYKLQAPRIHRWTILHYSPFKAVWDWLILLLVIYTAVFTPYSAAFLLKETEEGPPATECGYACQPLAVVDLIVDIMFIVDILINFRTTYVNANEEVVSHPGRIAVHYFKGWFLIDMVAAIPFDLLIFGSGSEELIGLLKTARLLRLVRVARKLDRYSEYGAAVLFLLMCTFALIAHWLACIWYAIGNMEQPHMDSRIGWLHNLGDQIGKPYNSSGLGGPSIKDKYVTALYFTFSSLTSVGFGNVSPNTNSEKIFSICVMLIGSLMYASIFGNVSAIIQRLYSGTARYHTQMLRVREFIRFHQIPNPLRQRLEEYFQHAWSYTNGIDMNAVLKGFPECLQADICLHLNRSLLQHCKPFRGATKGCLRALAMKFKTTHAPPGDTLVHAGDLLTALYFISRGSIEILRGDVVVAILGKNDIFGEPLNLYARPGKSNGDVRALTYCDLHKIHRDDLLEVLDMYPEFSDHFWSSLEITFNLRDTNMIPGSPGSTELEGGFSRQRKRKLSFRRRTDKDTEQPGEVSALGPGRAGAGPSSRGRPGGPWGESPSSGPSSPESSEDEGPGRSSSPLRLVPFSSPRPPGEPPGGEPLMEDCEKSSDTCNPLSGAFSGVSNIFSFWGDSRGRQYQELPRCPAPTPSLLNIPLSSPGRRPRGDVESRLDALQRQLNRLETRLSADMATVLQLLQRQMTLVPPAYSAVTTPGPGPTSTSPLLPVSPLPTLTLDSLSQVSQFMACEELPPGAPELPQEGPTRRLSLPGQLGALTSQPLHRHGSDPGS

Plasmodium falciparum [7] = test: Antimalarial activity against mefloquine/chloroquine-resistant Plasmodium falciparum asexual blood stage forms; type: functional, organism-based
Plasmodium falciparum [8] = test: Antimalarial activity against mefloquine/chloroquine-resistant Plasmodium falciparum asexual blood stage forms assessed as parasite clearance time at 10 times EC50; type: functional
Plasmodium falciparum [9] = test: Antimalarial activity against mefloquine/chloroquine-resistant Plasmodium falciparum asexual blood stage forms assessed as parasite clearance time at 100 times EC50; type: functional
Plasmodium falciparum [10] = test: Antimalarial activity against Plasmodium falciparum NF54 liver stage form schizonts infected in human hepatocytes assessed as EEF diameter; type: functional, organism-based
Plasmodium cynomolgi = test: Antimalarial activity against Plasmodium cynomolgi liver stage form infected in human hepatocytes; type: functional, organism-based
Plasmodium falciparum [11] = test: Antimalarial activity against Plasmodium falciparum 3D7 infected in qd administered po dosed NOD-scid IL-2Rgamma null mouse assessed as reduction in parasite growth after 3 day by flow cytometric analysis; type: functional
Plasmodium falciparum [12] = test: Antimalarial activity against Plasmodium falciparum 3D7 infected in bid administered po dosed NOD-scid IL-2Rgamma null mouse assessed as reduction in parasite growth after 3 day by flow cytometric analysis; type: functional
[13] = Half life in Beagle dog at 1 mg/kg, iv by LC-MS analysis; type: ADME, organism-based, Canis lupus familiaris; settings: in vivo
[14] = Half life in monkey at 1 mg/kg, iv by LC-MS analysis; type: ADME, organism-based, Macaca mulatta; settings: rhesus monkey, in vivo
[15] = Plasma clearance in Beagle dog at 1 mg/kg, iv by LC-MS analysis; type: ADME, organism-based, Canis lupus familiaris
[16] = Plasma clearance in monkey at 1 mg/kg, iv by LC-MS analysis; type: ADME, organism-based, Macaca mulatta; settings: rhesus monkey
[17] = AUC in Beagle dog at 1 mg/kg, iv by LC-MS analysis; type: ADME, organism-based, Canis lupus familiaris; settings: in vivo
[18] = AUC in monkey at 1 mg/kg, iv by LC-MS analysis; type: ADME, organism-based, Macaca mulatta; settings: rhesus monkey, in vivo
[19] = Cmax in human at 25 to 1200 mg, po measured up to 480 hrs by HPLC-MS/MS analysis; type: ADME, organism-based; settings: in vivo
[20] = Tmax in human at 25 to 1200 mg, po measured up to 480 hrs by HPLC-MS/MS analysis; type: ADME, organism-based; settings: in vivo
[21] = Half life in human at 25 to 1200 mg, po measured up to 480 hrs by HPLC-MS/MS analysis; type: ADME, organism-based; settings: in vivo
[22] = AUC (0 to infinity) in human at 25 to 1200 mg, po measured up to 480 hrs by HPLC-MS/MS analysis; type: ADME, organism-based; settings: in vivo
Plasmodium falciparum [23] = test: Antimalarial activity against Plasmodium falciparum asexual blood stage form infected in human assessed as parasite clearance half-life at 150 mg, po after 8 days; type: functional, organism-based
Plasmodium falciparum [24] = test: Antimalarial activity against Plasmodium falciparum asexual blood stage form infected in human assessed as reduction in parasite growth after 10 to 22 days; type: functional
Plasmodium falciparum [25] = test: Antimalarial activity against Plasmodium falciparum asexual blood stage form infected in human assessed as reduction in parasite growth at 400 mg, po after 72 hrs by blood smear based assay relative to control; type: functional; set-up: scale not given: the % may be the effect or the level left
Plasmodium falciparum [26] = test: Antimalarial activity against Plasmodium falciparum asexual blood stage form infected in human assessed as reduction in parasite growth at 400 mg, po measured on day 14 by blood smear based assay relative to control; type: functional; set-up: scale not given: the % may be the effect or the level left
Plasmodium falciparum [27] = test: Antimalarial activity against Plasmodium falciparum asexual blood stage form infected in human assessed as reduction in parasite growth at 400 mg, po measured on day 14 by qPCR analysis relative to control; type: functional; set-up: scale not given: the % may be the effect or the level left
Plasmodium falciparum [28] = test: Antimalarial activity against Plasmodium falciparum asexual blood stage form infected in human assessed as reduction in parasite growth at 250 mg, po measured on day 14 by blood smear based assay relative to control; type: functional; set-up: scale not given: the % may be the effect or the level left
Plasmodium falciparum [29] = test: Antimalarial activity against Plasmodium falciparum asexual blood stage form infected in human assessed as parasite clearance half-life; type: functional, organism-based
Plasmodium falciparum [30] = test: Antimalarial activity against schizont stage of Plasmodium falciparum clinical isolate; type: functional, organism-based
Plasmodium vivax [31] = test: Antimalarial activity against schizont stage of Plasmodium vivax clinical isolate; type: functional, organism-based
Plasmodium vivax [32] = test: Antimalarial activity against Plasmodium vivax infected in human erythrocytes assessed as reduction in [3H]-hypoxanthine incorporation incubated for 40 hrs followed by addition of [3H]-hypoxanthine and measured after 4 hrs by liquid scintillation counting method; type: functional, organism-based
[33] = Inhibition of Plasmodium vivax DHODH expressed in Escherichia coli using L-dihydroorotate as substrate
[34] = Plasmodium falciparum, 3D7, po, 72 h

EC50 [1]: 1.6 nM
Compound: Nc1ncc(-c2ccc(C(=O)N3CCC(N)C3)cc2)nc1-c1ccc(C(F)(F)F)cc1 (stereo unspecified)

Drug uptake [2]: 12%
half-life [3]: 25 h
dose excreted [4]: 36%
Compound: C[C@H]1Cc2c([nH]c3cc(Cl)c(F)cc23)-c2c3cc(Cl)c(O)cc3nc(=O)n21

Compound: O[C@@H](c1cc(C(F)(F)F)nc2c(C(F)(F)F)cccc12)[C@H]1CCCCN1
T1/2 (Plasmodium falciparum [5]): 6.2 h

Compound: Cc1cc(Nc2ccc(S(F)(F)(F)(F)F)cc2)n2nc(C(C)(F)F)nc2n1 [DSM-265]
IC50 [6]: 1590 to 6980 nM
EC50 (Plasmodium falciparum [7]): 7 to 16 nM
Time (Plasmodium falciparum [8]): 85 h
Time (Plasmodium falciparum [9]): 82 h
EC50 (Plasmodium falciparum [10]): 0.0057 µg/mL (≈ 0.0137 µM)
EC50 (Plasmodium cynomolgi): 0.13 µg/mL (≈ 0.313 µM)
MIC (Plasmodium falciparum [11]): 13 mg/kg
ED90 (Plasmodium falciparum [11]; [34]): 3 mg/kg
MIC (Plasmodium falciparum [12]): 6.4 mg/kg
ED90 (Plasmodium falciparum [12]; [34]): 1.5 mg/kg
half-life [13]: 10 to 45 h
half-life [14]: 10 to 45 h
clearance [15]: 0.367 to 0.9 mL/min/kg
clearance [16]: 0.367 to 0.9 mL/min/kg
AUC [17]: 16.7 to 46.9 µg·h/mL
AUC [18]: 16.7 to 46.9 µg·h/mL
Cmax [19]: 1310 to 34800 ng/mL
Tmax [20]: 1.5 to 4 h
half-life [21]: 86 to 118 h
AUC(0-inf) [22]: 107 to 4720 µg·h/mL
T1/2 (Plasmodium falciparum [23]): 9.4 h
MIC (Plasmodium falciparum [24]): 1.04 µg/mL (≈ 2.5 µM)
Activity (Plasmodium falciparum [25]): 100%
Activity (Plasmodium falciparum [26]): 100%
Activity (Plasmodium falciparum [27]): 100%
Activity (Plasmodium falciparum [28]): 88%
T1/2 (Plasmodium falciparum [29]): 5 h
EC50 (Plasmodium falciparum [30]): 918 nM
EC50 (Plasmodium vivax [31]): 190 nM
EC50 (Plasmodium vivax [32]): 529 nM
EC50 [33]: 20 nM
